According to US20240409585A1, “MACROCYCLIC IMMUNOMODULATORS” (priority 2021, published 2024):
Numbered stars: 1 amine (or outer) side, 2 acyl side, 3 side chain; on linkers, the order of the positions; unused ones are H or OH. Bridge positions count the residues as written; N and C are the ends. Square brackets hold non-standard residues; d marks the D form. Peptide text beside a SMILES is read from it. * marks the point of attachment. Bip(4'-COOH) = N[C@@H](Cc1ccc(-c2ccc(C(=O)O)cc2)cc1)C(=O)O; Bip(4'-NHAc) = CC(=O)Nc1ccc(-c2ccc(C[C@H](N)C(=O)O)cc2)cc1; Phe(3-CF3) = N[C@@H](Cc1cccc(C(F)(F)F)c1)C(=O)O; Ala(morpholin-4-yl) = N[C@@H](CN1CCOCC1)C(=O)O; Phe(4-COOH) = N[C@@H](Cc1ccc(C(=O)O)cc1)C(=O)O; X5 = CS(=O)(=O)NC(=O)C[C@H](N[*:1])C(=O)[*:2]; Bip = N[C@@H](Cc1ccc(-c2ccccc2)cc1)C(=O)O; Phe(3-F) = N[C@@H](Cc1cccc(F)c1)C(=O)O; Phe(3-Me) = Cc1cccc(C[C@H](N)C(=O)O)c1; Abu(3S-NH2) = C[C@H](N)[C@H](N)C(=O)O; Cha = N[C@@H](CC1CCCCC1)C(=O)O; Carboxymethyl = O=C(O)C*; NMeA = CN[C@@H](C)C(=O)O; Orn = NCCC[C@H](N)C(=O)O; Dab = NCC[C@H](N)C(=O)O

Tests used:
[1] = target: T1, PE-labeled human PD-L1-Ig binding to Jurkat cell line over-expressing human PD-1 (Jurkat-PD-1) (Homo sapiens, UniProt Q15116); assay: Jurkat-PD-1 Cell Binding High-Content Screening Assay (CBA): Method 2 (presence and absence of tween-20); settings: Jurkat-PD-1 cells, PE-labeled PD-L1-Ig 20 nM; presence or absence of tween-20 not given; head μM; read-out: CBA Method 2 μM
T1 construct: expressed in transfected cells; host or cells: Jurkat
In short: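 Compounds incubated with Jurkat cells overexpressing human PD-1 for 2 h at 37° C, tested with and without tween-20 to flag aggregation. PE-labeled human PD-L1-Ig (20 nM final) added in DMEM/10% FCS; binding read by high-content imaging.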

[2] = target: T1, PE-labeled human PD-L1-Ig binding to Jurkat cell line over-expressing human PD-1 (Jurkat-PD-1); assay: Jurkat-PD-1 Cell Binding High-Content Screening Assay (CBA): Method 1; settings: Jurkat-PD-1 cells, PE-labeled PD-L1-Ig; μM; read-out: CBA Method 1 μM

T1 sequence (Q15116 25-288): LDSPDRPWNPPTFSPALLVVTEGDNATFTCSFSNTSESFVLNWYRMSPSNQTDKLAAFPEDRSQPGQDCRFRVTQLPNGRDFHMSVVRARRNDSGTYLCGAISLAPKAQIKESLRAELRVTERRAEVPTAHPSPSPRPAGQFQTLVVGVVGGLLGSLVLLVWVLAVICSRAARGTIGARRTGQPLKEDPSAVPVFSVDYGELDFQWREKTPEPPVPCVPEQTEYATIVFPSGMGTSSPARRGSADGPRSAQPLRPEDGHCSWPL

| IC50 [1] [µM] | IC50 [2] [µM] | SMILES |
| --- | --- | --- |
| 0.517 | 0.514 | Cc1cccc(C[C@@H]2NC(=O)[C@H](CC(=O)NS(C)(=O)=O)NC(=O)[C@H](Cc3ccc(OCC(=O)O)cc3)NC(=O)[C@H](CN3CCOCC3)NC(=O)CSC[C@@H](C(=O)N[C@@H](CCN)C(N)=O)NC(=O)[C@H](CCCN)NC(=O)[C@H](C(C)C)NC(=O)[C@H](CC3CCCCC3)NC(=O)[C@H](CCN)NC(=O)[C@@H](CC(C)C)NC(=O)[C@H](C)N(C)C(=O)[C@H](Cc3ccc(C(=O)O)cc3)NC(=O)[C@H](Cc3ccc(-c4ccccc4)cc3)NC(=O)[C@H](Cc3ccc(C(=O)O)cc3)NC2=O)c1 [Example 5046] ({CH2CO}-[Ala(morpholin-4-yl)]Y(Carboxymethyl)[X5][Phe(3-Me)][Phe(4-COOH)][Bip][Phe(4-COOH)][NMeA][dL][Dab][Cha]V[Orn]C[Dab]-NH2; thioether N-14) |
| 0.0041 | 0.0052 | CC(=O)Nc1ccc(-c2ccc(C[C@@H]3NC(=O)[C@H](Cc4cccc(C(F)(F)F)c4)NC(=O)[C@H](CC(=O)O)NC(=O)[C@H](Cc4ccc(C(=O)O)cc4)NC(=O)[C@H](CN4CCOCC4)NC(=O)CSC[C@@H](C(=O)N[C@@H](CCN)C(N)=O)NC(=O)[C@H](CCCN)NC(=O)[C@H](C(C)C)NC(=O)[C@H](CC4CCCCC4)NC(=O)[C@H](CCN)NC(=O)[C@@H](CC(C)C)NC(=O)[C@H](C)N(C)C(=O)[C@H](CCC(N)=O)NC(=O)[C@H](Cc4ccc(-c5ccccc5)cc4)NC3=O)cc2)cc1 [Example 5047] ({CH2CO}-[Ala(morpholin-4-yl)][Phe(4-COOH)]D[Phe(3-CF3)][Bip(4'-NHAc)][Bip]Q[NMeA][dL][Dab][Cha]V[Orn]C[Dab]-NH2; thioether N-14) |
| 0.0044 | 0.0048 | CC(=O)Nc1ccc(-c2ccc(C[C@@H]3NC(=O)[C@H](Cc4cccc(C)c4)NC(=O)[C@H](CC(=O)O)NC(=O)[C@H](Cc4ccc(C(=O)O)cc4)NC(=O)[C@H](CN4CCOCC4)NC(=O)CSC[C@@H](C(=O)N[C@@H](CCN)C(N)=O)NC(=O)[C@H](CCCN)NC(=O)[C@H](C(C)C)NC(=O)[C@H](CC4CCCCC4)NC(=O)[C@H](CCN)NC(=O)[C@@H](CC(C)C)NC(=O)[C@H](C)N(C)C(=O)[C@H](CCC(N)=O)NC(=O)[C@H](Cc4ccc(-c5ccccc5)cc4)NC3=O)cc2)cc1 [Example 5048] ({CH2CO}-[Ala(morpholin-4-yl)][Phe(4-COOH)]D[Phe(3-Me)][Bip(4'-NHAc)][Bip]Q[NMeA][dL][Dab][Cha]V[Orn]C[Dab]-NH2; thioether N-14) |
| 0.007 | 0.0083 | CC(=O)Nc1ccc(-c2ccc(C[C@@H]3NC(=O)[C@H](Cc4cccc(C)c4)NC(=O)[C@H](CC(=O)O)NC(=O)[C@H](Cc4ccc(C(=O)O)cc4)NC(=O)[C@H](CN4CCOCC4)NC(=O)CSC[C@@H](C(=O)N[C@@H](CCN)C(N)=O)NC(=O)[C@H](CCCN)NC(=O)[C@H](C(C)C)NC(=O)[C@H](Cc4cccc(F)c4)NC(=O)[C@H](CCN)NC(=O)[C@@H](CC(C)C)NC(=O)[C@H](C)N(C)C(=O)[C@H](CCC(N)=O)NC(=O)[C@H](Cc4ccc(-c5ccccc5)cc4)NC3=O)cc2)cc1 [Example 5049] ({CH2CO}-[Ala(morpholin-4-yl)][Phe(4-COOH)]D[Phe(3-Me)][Bip(4'-NHAc)][Bip]Q[NMeA][dL][Dab][Phe(3-F)]V[Orn]C[Dab]-NH2; thioether N-14) |
| 0.0021 | 0.0032 | CC(=O)Nc1ccc(-c2ccc(C[C@@H]3NC(=O)[C@H](Cc4cccc(C)c4)NC(=O)[C@H](CC(=O)O)NC(=O)[C@H](Cc4ccc(C(=O)O)cc4)NC(=O)[C@H]([C@H](C)N)NC(=O)CSC[C@@H](C(=O)N[C@@H](CCN)C(N)=O)NC(=O)[C@H](CCCN)NC(=O)[C@H](C(C)C)NC(=O)[C@H](CC4CCCCC4)NC(=O)[C@H](CCN)NC(=O)[C@@H](CC(C)C)NC(=O)[C@H](C)N(C)C(=O)[C@H](CCC(N)=O)NC(=O)[C@H](Cc4ccc(-c5ccccc5)cc4)NC3=O)cc2)cc1 [Example 5051] ({CH2CO}-[Abu(3S-NH2)][Phe(4-COOH)]D[Phe(3-Me)][Bip(4'-NHAc)][Bip]Q[NMeA][dL][Dab][Cha]V[Orn]C[Dab]-NH2; thioether N-14) |
| 0.0084 | 0.0081 | CC(=O)Nc1ccc(-c2ccc(C[C@@H]3NC(=O)[C@H](Cc4cccc(C)c4)NC(=O)[C@H](CC(=O)O)NC(=O)[C@H](Cc4ccc(C(=O)O)cc4)NC(=O)[C@H]([C@H](C)N)NC(=O)CSC[C@@H](C(=O)N[C@@H](CCN)C(N)=O)NC(=O)[C@H](CCCN)NC(=O)[C@H](C(C)C)NC(=O)[C@H](Cc4cccc(F)c4)NC(=O)[C@H](CCN)NC(=O)[C@@H](CC(C)C)NC(=O)[C@H](C)N(C)C(=O)[C@H](CCC(N)=O)NC(=O)[C@H](Cc4ccc(-c5ccccc5)cc4)NC3=O)cc2)cc1 [Example 5052] ({CH2CO}-[Abu(3S-NH2)][Phe(4-COOH)]D[Phe(3-Me)][Bip(4'-NHAc)][Bip]Q[NMeA][dL][Dab][Phe(3-F)]V[Orn]C[Dab]-NH2; thioether N-14) |
| 0.0074 | 0.009 | CC(=O)Nc1ccc(-c2ccc(C[C@@H]3NC(=O)[C@H](Cc4cccc(C(F)(F)F)c4)NC(=O)[C@H](CC(=O)O)NC(=O)[C@H](Cc4ccc(C(=O)O)cc4)NC(=O)[C@H](CC(C)C)NC(=O)CSC[C@@H](C(=O)N[C@@H](CCN)C(N)=O)NC(=O)[C@H](CCCN)NC(=O)[C@H](C(C)C)NC(=O)[C@H](CC4CCCCC4)NC(=O)[C@H](CCN)NC(=O)[C@@H](CC(C)C)NC(=O)[C@H](C)N(C)C(=O)[C@H](CCC(N)=O)NC(=O)[C@H](Cc4ccc(-c5ccccc5)cc4)NC3=O)cc2)cc1 [Example 5053] ({CH2CO}-L[Phe(4-COOH)]D[Phe(3-CF3)][Bip(4'-NHAc)][Bip]Q[NMeA][dL][Dab][Cha]V[Orn]C[Dab]-NH2; thioether N-14) |
| 0.0057 | 0.0053 | CC(=O)Nc1ccc(-c2ccc(C[C@@H]3NC(=O)[C@H](Cc4cccc(C)c4)NC(=O)[C@H](CC(=O)O)NC(=O)[C@H](Cc4ccc(C(=O)O)cc4)NC(=O)[C@H](CC(C)C)NC(=O)CSC[C@@H](C(=O)N[C@@H](CCN)C(N)=O)NC(=O)[C@H](CCCN)NC(=O)[C@H](C(C)C)NC(=O)[C@H](CC4CCCCC4)NC(=O)[C@H](CCN)NC(=O)[C@@H](CC(C)C)NC(=O)[C@H](C)N(C)C(=O)[C@H](CCC(N)=O)NC(=O)[C@H](Cc4ccc(-c5ccccc5)cc4)NC3=O)cc2)cc1 [Example 5054] ({CH2CO}-L[Phe(4-COOH)]D[Phe(3-Me)][Bip(4'-NHAc)][Bip]Q[NMeA][dL][Dab][Cha]V[Orn]C[Dab]-NH2; thioether N-14) |
| 0.0321 | 0.0385 | CC(=O)Nc1ccc(-c2ccc(C[C@@H]3NC(=O)[C@H](Cc4cccc(C)c4)NC(=O)[C@H](CC(=O)O)NC(=O)[C@H](Cc4ccc(C(=O)O)cc4)NC(=O)[C@H](CC(C)C)NC(=O)CSC[C@@H](C(=O)N[C@@H](CCN)C(N)=O)NC(=O)[C@H](CCCN)NC(=O)[C@H](C(C)C)NC(=O)[C@H](Cc4cccc(F)c4)NC(=O)[C@H](CCN)NC(=O)[C@@H](CC(C)C)NC(=O)[C@H](C)N(C)C(=O)[C@H](CCC(N)=O)NC(=O)[C@H](Cc4ccc(-c5ccccc5)cc4)NC3=O)cc2)cc1 [Example 5055] ({CH2CO}-L[Phe(4-COOH)]D[Phe(3-Me)][Bip(4'-NHAc)][Bip]Q[NMeA][dL][Dab][Phe(3-F)]V[Orn]C[Dab]-NH2; thioether N-14) |
| 0.0095 | 0.01 | COC[C@@H]1NC(=O)CSC[C@@H](C(=O)N[C@@H](CCN)C(N)=O)NC(=O)[C@H](CCCN)NC(=O)[C@H](C(C)C)NC(=O)[C@H](CC2CCCCC2)NC(=O)[C@H](CCN)NC(=O)[C@@H](CC(C)C)NC(=O)[C@H](C)N(C)C(=O)[C@H](CCC(N)=O)NC(=O)[C@H](Cc2ccc(-c3ccccc3)cc2)NC(=O)[C@H](Cc2ccc(-c3ccc(NC(C)=O)cc3)cc2)NC(=O)[C@H](Cc2cccc(C)c2)NC(=O)[C@H](CC(=O)O)NC(=O)[C@H](Cc2ccc(OCC(=O)O)cc2)NC1=O [Example 5056] ({CH2CO}-S(Me)Y(Carboxymethyl)D[Phe(3-Me)][Bip(4'-NHAc)][Bip]Q[NMeA][dL][Dab][Cha]V[Orn]C[Dab]-NH2; thioether N-14) |
| 0.0106 | 0.0089 | COC[C@@H]1NC(=O)CSC[C@@H](C(=O)N[C@@H](CCN)C(N)=O)NC(=O)[C@H](CCCN)NC(=O)[C@H](C(C)C)NC(=O)[C@H](CC2CCCCC2)NC(=O)[C@H](CCN)NC(=O)[C@@H](CC(C)C)NC(=O)[C@H](C)N(C)C(=O)[C@H](CCC(N)=O)NC(=O)[C@H](Cc2ccc(-c3ccccc3)cc2)NC(=O)[C@H](Cc2ccc(-c3ccc(C(=O)O)cc3)cc2)NC(=O)[C@H](Cc2cccc(C)c2)NC(=O)[C@H](CC(=O)O)NC(=O)[C@H](Cc2ccc(OCC(=O)O)cc2)NC1=O [Example 5057] ({CH2CO}-S(Me)Y(Carboxymethyl)D[Phe(3-Me)][Bip(4'-COOH)][Bip]Q[NMeA][dL][Dab][Cha]V[Orn]C[Dab]-NH2; thioether N-14) |

| SMILES | IC50 [1] [µM] | IC50 [2] [µM] |
| --- | --- | --- |
| CC(=O)Nc1ccc(-c2ccc(C[C@@H]3NC(=O)[C@H](Cc4cccc(C(F)(F)F)c4)NC(=O)[C@H](CC(=O)O)NC(=O)[C@H](Cc4ccc(C(=O)O)cc4)NC(=O)[C@H]([C@H](C)N)NC(=O)CSC[C@@H](C(=O)N[C@@H](CCN)C(N)=O)NC(=O)[C@H](CCCN)NC(=O)[C@H](C(C)C)NC(=O)[C@H](CC4CCCCC4)NC(=O)[C@H](CCN)NC(=O)[C@@H](CC(C)C)NC(=O)[C@H](C)N(C)C(=O)[C@H](CCC(N)=O)NC(=O)[C@H](Cc4ccc(-c5ccccc5)cc4)NC3=O)cc2)cc1 [Example 5050] ({CH2CO}-[Abu(3S-NH2)][Phe(4-COOH)]D[Phe(3-CF3)][Bip(4'-NHAc)][Bip]Q[NMeA][dL][Dab][Cha]V[Orn]C[Dab]-NH2; thioether N-14) | 0.0059 | 0.0065 |
